# Experimental data reported in publication PMC11111955, “Safety and efficacy evaluation of halicin as an effective drug for inhibiting intestinal infections” (Frontiers in Pharmacology, 2024).
# “Also recorded” adds a separate entry of the source. Like-named read-outs stand apart in the source and are kept apart here.
# What was measured:
# Mouse spermatozoa = conditions: for Abnormal ratio (%) / Number of sperm abnormality: male ICR mice, oral; for Number of sperm abnormality: of 5 × 1,000 sperms observed
# TA98 = test: Ames test; format: cell-based, Salmonella typhimurium
# Description: (§1) The experiments were performed in triplicate.
# TA100 = test: Ames test; format: cell-based, Salmonella typhimurium
# Description: as §1
# B. subtilis (ATCC 66333) = test: Minimum inhibitory concentration (MIC); format: cell-based, Bacillus subtilis
# Description: (§2) The test strains were inoculated on the corresponding solid medium and incubated overnight at 37°C. A single colony was picked from the medium and inoculated into Luria Broth (LB), and then incubated overnight at 37°C with shaking at 220 rpm. The bacterial suspension was diluted to 0.5 McFarland turbidity with Mueller Hinton broth (MHB), and then dilute 100 times for later use. Halicin was added to the 96-well plate, and diluted it to concentrations of 128, 64, 32, 16, 8, 4, 2, 1, 0.5, 0.25, 0.125, and 0 μg/mL by gradient. The 96-well plate was incubated at 37°C for 16 h, followed by observing and recording the results. The MIC was determined as the concentration at which there was no visible colony growth was observed.
# [1] = tested on: S. pneumoniae (ATCC 49619); test: Minimum inhibitory concentration (MIC); format: cell-based, Streptococcus pneumoniae
# Description: as §2
# Proteus (CMCC (B) 49027) = test: Growth kinetics curve; format: cell-based; conditions: 1/2 × to 4 × MIC
# [2] = tested on: K. pneumoniae (ATCC 4352); test: Minimum inhibitory concentration (MIC); format: cell-based, Klebsiella pneumoniae
# Description: as §2
# [3] = tested on: P. aeruginosa (ATCC 27853); test: Minimum inhibitory concentration (MIC); format: cell-based, Pseudomonas aeruginosa
# Description: as §2
# Salmonella (CVCC 3377) [4] = test: Minimum inhibitory concentration (MIC); format: cell-based
# E. coli (ATCC 25922) = test: Multipassage resistance study (continuous induction); conditions: after multipassage induction
# Salmonella (CVCC 3377) [5] = test: Growth kinetics curve; conditions: 1/2 × to 4 × MIC
# zebrafish embryos = test: Zebrafish embryonic malformation study; format: in vivo; conditions: up to 4 μM; 24, 48 and 72 h after fertilization
# Description: For embryonic malformation studies, groups of 20 zebrafish embryos each were treated with halicin. The concentrations of the drug were set at 4, 2, 1, and 0.5 μM, in accordance with established protocols for zebrafish embryo acute toxicity test. Observations were conducted at 24, 48, and 72 h after fertilization using a microscope. The embryonic assessment focused on six specific teratogenic endpoints: pericardial edema, yolk sac edema, cardiac malformations, morphological body shape deformities, tail deformities, and craniofacial anomalies, as well as otolith abnormalities. To minimize the impact of random variability, these experiments were performed in triplicate ([OECD, 1998]).
smiles,measurement,setting,value
Nc1nnc(Sc2ncc([N+](=O)[O-])s2)s1 [halicin],Abnormal sperms counted ratio (%): Banana shape,Mouse spermatozoa; High-dose (1009.1) mg/kg,42.52 ± 12.57%
same,Abnormal sperms counted ratio (%): Kinks tail,Mouse spermatozoa; High-dose (1009.1) mg/kg,3.05 ± 2.79%
same,Abnormal sperms counted ratio (%): Large round head,Mouse spermatozoa; High-dose (1009.1) mg/kg,9.07 ± 4.02%
same,Abnormal sperms counted ratio (%): No hook,Mouse spermatozoa; High-dose (1009.1) mg/kg,15.6 ± 5.5%
same,Abnormal sperms counted ratio (%): Two head,Mouse spermatozoa; High-dose (1009.1) mg/kg,3.05 ± 2.79%
same,Abnormal sperms counted ratio (%): Two tail,Mouse spermatozoa; High-dose (1009.1) mg/kg,3.11 ± 2.84%
same,Abnormal sperms counted ratio (%): Amorphous,Mouse spermatozoa; Low-dose (252.3) mg/kg,39.81 ± 3%
same,Abnormal sperms counted ratio (%): Banana shape,Mouse spermatozoa; Low-dose (252.3) mg/kg,35.98 ± 3.94%
same,Abnormal sperms counted ratio (%): Kinks tail,Mouse spermatozoa; Low-dose (252.3) mg/kg,1.18 ± 2.63%
same,Abnormal sperms counted ratio (%): Large round head,Mouse spermatozoa; Low-dose (252.3) mg/kg,3.92 ± 3.58%
same,Abnormal sperms counted ratio (%): No hook,Mouse spermatozoa; Low-dose (252.3) mg/kg,16.61 ± 3.11%
same,Abnormal sperms counted ratio (%): Two head,Mouse spermatozoa; Low-dose (252.3) mg/kg,1.33 ± 2.98%
same,Abnormal sperms counted ratio (%): Two tail,Mouse spermatozoa; Low-dose (252.3) mg/kg,1.18 ± 2.63%
same,Abnormal sperms counted ratio (%): Amorphous,Mouse spermatozoa; Medium-dose (504.6) mg/kg,29.69 ± 2.67%
same,Abnormal sperms counted ratio (%): Banana shape,Mouse spermatozoa; Medium-dose (504.6) mg/kg,35.81 ± 4.52%
same,Abnormal sperms counted ratio (%): Kinks tail,Mouse spermatozoa; Medium-dose (504.6) mg/kg,2.44 ± 3.37%
same,Abnormal sperms counted ratio (%): Large round head,Mouse spermatozoa; Medium-dose (504.6) mg/kg,11.96 ± 0.96%
same,Abnormal sperms counted ratio (%): No hook,Mouse spermatozoa; Medium-dose (504.6) mg/kg,16.7 ± 2.71%
same,Abnormal sperms counted ratio (%): Two head,Mouse spermatozoa; Medium-dose (504.6) mg/kg,2.22 ± 3.04%
same,Abnormal sperms counted ratio (%): Two tail,Mouse spermatozoa; Medium-dose (504.6) mg/kg,1.18 ± 2.63%
same,Abnormal ratio (%),Mouse spermatozoa; High-dose (1009.1) mg/kg,2.12 ± 0.38%
same,Number of sperm abnormality,Mouse spermatozoa; High-dose (1009.1) mg/kg,110
same,Abnormal ratio (%),Mouse spermatozoa; Low-dose (252.3) mg/kg,1.56 ± 0.09%
same,Number of sperm abnormality,Mouse spermatozoa; Low-dose (252.3) mg/kg,78
same,Abnormal ratio (%),Mouse spermatozoa; Medium-dose (504.6) mg/kg,1.68 ± 0.13%
same,Number of sperm abnormality,Mouse spermatozoa; Medium-dose (504.6) mg/kg,84
same,Ames test bacterial counts,"TA98; TA98, +S9, 5.6 μg/plate",30 ± 12.7
same,Ames test bacterial counts,"TA98; TA98, +S9, 11.2 μg/plate",43 ± 8.5
same,Ames test bacterial counts,"TA98; TA98, +S9, 22.5 μg/plate",53 ± 7.1
same,Ames test bacterial counts,"TA98; TA98, +S9, 45 μg/plate",0 ± 0
same,Ames test bacterial counts,"TA98; TA98, -S9, 5.6 μg/plate",27 ± 2.8
same,Ames test bacterial counts,"TA98; TA98, -S9, 11.2 μg/plate",61 ± 14.1
same,Ames test bacterial counts,"TA98; TA98, -S9, 22.5 μg/plate",55 ± 5.7
same,Ames test bacterial counts,"TA98; TA98, -S9, 45 μg/plate",0 ± 0
same,Ames test bacterial counts,"TA100; TA100, +S9, 5.6 μg/plate",171 ± 11.3
same,Ames test bacterial counts,"TA100; TA100, +S9, 11.2 μg/plate",152 ± 12.7
same,Ames test bacterial counts,"TA100; TA100, +S9, 22.5 μg/plate",0 ± 0
same,Ames test bacterial counts,"TA100; TA100, +S9, 45 μg/plate",0 ± 0
same,Ames test bacterial counts,"TA100; TA100, -S9, 5.6 μg/plate",121 ± 9.9
same,Ames test bacterial counts,"TA100; TA100, -S9, 11.2 μg/plate",0 ± 0
same,Ames test bacterial counts,"TA100; TA100, -S9, 22.5 μg/plate",0 ± 0
same,Ames test bacterial counts,"TA100; TA100, -S9, 45 μg/plate",0 ± 0
same,MIC,B. subtilis (ATCC 66333),128 µg/mL
same,MIC,[1],0.5 µg/mL
same,growth in growth kinetics curve assay,Proteus (CMCC (B) 49027),completely inhibited
same,MIC,[2],8 µg/mL
same,MIC,[3],64 µg/mL
same,MIC,Salmonella (CVCC 3377) [4],8 µg/mL
same,MIC of ECR (E. coli ATCC 25922 resistant strains),E. coli (ATCC 25922),32 µg/mL
same,growth in growth kinetics curve assay,Salmonella (CVCC 3377) [5],completely inhibited
same,teratogenic effects on the embryos,zebrafish embryos,no significant teratogenicity; also recorded: no any significant teratogenic effects
